# Test system: patients of the REDUCE-IT and earlier EPA placebo-controlled trials
# Experiment: Example 3: adverse events by risk ratio, icosapent ethyl vs placebo (candidate categories; infectious disease terms of interest)
# Conditions: for NNT / Risk Ratio (95% CI) / ARR: ISS
# [1] = Frequent Bowel Movements, Any Severity
# [2] = Frequent Bowel Movements, Mild Severity
# [3] = Frequent Bowel Movements, Related
# [4] = Huntington's Chorea, Any Severity
# [5] = Huntington's Chorea, Mild Severity
# [6] = ITT, AMR101 N = 4089, placebo 8 of 4090
# [7] = ITT, AMR101 N = 4089, placebo 10 of 4090
# [8] = ITT, AMR101 N = 4089, placebo 22 of 4090
compound,measurement,setting,value
"CC/C=C\C/C=C\C/C=C\C/C=C\C/C=C\CCCC(=O)OCC [icosapent ethyl, eicosapentaenoic acid ethyl ester]",NNT,"Flatulence, Mild Severity",129
same,Risk Ratio (95% CI),"Flatulence, Mild Severity",0.424 (0.125 to 1.440) 3
same,ARR,"Flatulence, Related",−0.8%
same,NNT,"Flatulence, Related",121
same,Risk Ratio (95% CI),"Flatulence, Related",0.463 (0.152 to 1.408) 3
same,ARR,[1],−0.6%
same,NNT,[1],173
same,Risk Ratio (95% CI),"Frequent Bowel Movements, Any Severity, case counts given",[0 drug vs 3 PBO]
same,ARR,[2],−0.4%
same,NNT,[2],259
same,Risk Ratio (95% CI),"Frequent Bowel Movements, Mild Severity, case counts given",[0 drug vs 2 PBO]
same,ARR,[3],−0.6%
same,NNT,[3],173
same,Risk Ratio (95% CI),"Frequent Bowel Movements, Related, case counts given",[0 drug vs 3 PBO]
same,ARR,Hot Flush,−0.3%
same,NNT,Hot Flush,292
same,Risk Ratio (95% CI),Hot Flush,0.556 (0.125 to 2.474) 3
same,ARR,[4],−1.3%
same,NNT,[4],77
same,Risk Ratio (95% CI),[4],0.247 (0.067 to 0.908) 4
same,ARR,[5],−0.9%
same,NNT,[5],109
same,Risk Ratio (95% CI),[5],0.318 (0.083 to 1.223)4
same,ARR,Menorrhagia,−0.6%
same,NNT,Menorrhagia,159
same,Risk Ratio (95% CI),Menorrhagia,0.185 (0.021 to 1.653) 5
same,ARR,"Muscle spasms, Related",−0.0%
same,NNT,"Muscle spasms, Related",2007
same,Risk Ratio (95% CI),"Muscle spasms, Related",0.741 (0.046 to 11.826) 2
same,ARR,"Nasopharyngitis, Any Severity",−2.3%
same,NNT,"Nasopharyngitis, Any Severity",43
same,Risk Ratio (95% CI),"Nasopharyngitis, Any Severity",0.588 (0.344 to 1.004) 3
same,ARR,"Nasopharyngitis, Mild Severity",−2.3%
same,NNT,"Nasopharyngitis, Mild Severity",43
same,Risk Ratio (95% CI),"Nasopharyngitis, Mild Severity",0.494 (0.265 to 0.921) 3
same,ARR,"Weight loss, Related",−0.4%
same,NNT,"Weight loss, Related",230
same,Risk Ratio (95% CI),"Weight loss, Related",0.247 (0.026 to 2.369) 4
same,Bronchiectasis TEAE: % of subjects,"ITT, AMR101 N = 4089, placebo 0.1, Fisher's Exact p 0.5076",(0.1) %
same,Hepatosplenomegaly TEAE: % of subjects,"ITT, AMR101 N = 4089, placebo 0.1, Fisher's Exact p 0.6249",(0.0) %
same,Allergic sinusitis TEAE: % of subjects,"ITT, AMR101 N = 4089, placebo 0.1, Fisher's Exact p 0.6874",(0.0) %
same,Mucosal inflammation TEAE: % of subjects,"ITT, AMR101 N = 4089, placebo 0.1, Fisher's Exact p 0.7264",(0.1) %
same,Systemic inflammatory response syndrome TEAE: % of subjects,"ITT, AMR101 N = 4089, placebo 0.2, Fisher's Exact p 0.1092",(0.0) %
same,Splenomegaly TEAE: % of subjects,"ITT, AMR101 N = 4089, placebo 0.2, Fisher's Exact p 0.1792",(0.1) %
same,Neutropenia TEAE: % of subjects,"ITT, AMR101 N = 4089, placebo 0.2, Fisher's Exact p 0.2262",(0.1) %
same,Gingivitis TEAE: % of subjects,"ITT, AMR101 N = 4089, placebo 0.2, Fisher's Exact p 0.3013",(0.1) %
same,Orthopnea TEAE: % of subjects,"ITT, AMR101 N = 4089, placebo 0.2, Fisher's Exact p 0.3873",(0.1) %
same,Helicobacter infection TEAE: % of subjects,"ITT, AMR101 N = 4089, placebo 0.2, Fisher's Exact p 0.4235",(0.1) %
same,Herpes simplex TEAE: % of subjects,"ITT, AMR101 N = 4089, placebo 0.2, Fisher's Exact p 0.5807",(0.1) %
same,Vulvovaginal mycotic infection TEAE: % of subjects,"ITT, AMR101 N = 4089, placebo 0.3, Fisher's Exact p 0.2097",(0.1) %
same,Bronchitis chronic TEAE: % of subjects,"ITT, AMR101 N = 4089, placebo 0.3, Fisher's Exact p 0.5029",(0.2) %
same,Hepatobiliary disorders (SOC) TEAE: % of subjects,"ITT, AMR101 N = 4089, placebo 0.5, Fisher's Exact p 0.0037",(0.1) %
same,Hepatomegaly TEAE: % of subjects,"ITT, AMR101 N = 4089, placebo 0.5, Fisher's Exact p 0.0065",(0.1) %
same,Atelectasis TEAE: % of subjects,"ITT, AMR101 N = 4089, placebo 0.5, Fisher's Exact p 0.0795",(0.3) %
same,Emphysema TEAE: % of subjects,"ITT, AMR101 N = 4089, placebo 0.5, Fisher's Exact p 0.2144",(0.3) %
same,Rhinitis TEAE: % of subjects,"ITT, AMR101 N = 4089, placebo 0.5, Fisher's Exact p 0.4166",(0.4) %
same,Tooth infection TEAE: % of subjects,"ITT, AMR101 N = 4089, placebo 0.7, Fisher's Exact p 0.2514",(0.5) %
same,Influenza like illness TEAE: % of subjects,"ITT, AMR101 N = 4089, placebo 0.7, Fisher's Exact p 0.6709",(0.6) %
same,Thrombocytopenia TEAE: % of subjects,"ITT, AMR101 N = 4089, placebo 0.8, Fisher's Exact p 0.3393",(0.6) %
same,Wheezing TEAE: % of subjects,"ITT, AMR101 N = 4089, placebo 0.9, Fisher's Exact p 0.1162",(0.6) %
same,General disorders and administration site conditions (SOC) TEAE: % of subjects,"ITT, AMR101 N = 4089, placebo 1.0, Fisher's Exact p 0.1800",(0.7) %
same,Sepsis TEAE: % of subjects,"ITT, AMR101 N = 4089, placebo 1.0, Fisher's Exact p 0.3535",(0.8) %
same,Blood and lymphatic system disorders (SOC) TEAE: % of subjects,"ITT, AMR101 N = 4089, placebo 1.2, Fisher's Exact p 0.0279",(0.7) %
same,Hepatosplenomegaly TEAE: number of subjects,"ITT, AMR101 N = 4089, placebo 3 of 4090",1
same,Allergic sinusitis TEAE: number of subjects,"ITT, AMR101 N = 4089, placebo 4 of 4090",2
same,Mucosal inflammation TEAE: number of subjects,"ITT, AMR101 N = 4089, placebo 5 of 4090",3
same,Cough TEAE: % of subjects,"ITT, AMR101 N = 4089, placebo 5.9, Fisher's Exact p 1.0000",(5.9) %
same,Bronchiectasis TEAE: number of subjects,"ITT, AMR101 N = 4089, placebo 6 of 4090",3
same,Influenza TEAE: % of subjects,"ITT, AMR101 N = 4089, placebo 6.6, Fisher's Exact p 0.7541",(6.4) %
same,Pneumonia TEAE: % of subjects,"ITT, AMR101 N = 4089, placebo 6.8, Fisher's Exact p 0.5627",(6.4) %
same,"Respiratory, thoracic and mediastinal disorders (SOC) TEAE: % of subjects","ITT, AMR101 N = 4089, placebo 7.8, Fisher's Exact p 0.2050",(7.0) %
same,Herpes simplex TEAE: number of subjects,[6],5
same,Neutropenia TEAE: number of subjects,[6],3
same,Orthopnea TEAE: number of subjects,[6],4
same,Systemic inflammatory response syndrome TEAE: number of subjects,[6],2
same,Helicobacter infection TEAE: number of subjects,"ITT, AMR101 N = 4089, placebo 9 of 4090",5
same,Gingivitis TEAE: number of subjects,[7],5
same,Splenomegaly TEAE: number of subjects,[7],4
same,Vulvovaginal mycotic infection TEAE: number of subjects,"ITT, AMR101 N = 4089, placebo 11 of 4090",5
same,Bronchitis chronic TEAE: number of subjects,"ITT, AMR101 N = 4089, placebo 12 of 4090",8
same,Infections and infestations (SOC) TEAE: % of subjects,"ITT, AMR101 N = 4089, placebo 14.6, Fisher's Exact p 0.2676",(13.8) %
same,Hepatomegaly TEAE: number of subjects,"ITT, AMR101 N = 4089, placebo 19 of 4090",5
same,Emphysema TEAE: number of subjects,"ITT, AMR101 N = 4089, placebo 20 of 4090",12
same,Subjects with at least one Infectious Disease TEAE of Interest: % of subjects,"ITT, AMR101 N = 4089, placebo 21.6, Fisher's Exact p 0.0562",(19.9) %
same,Atelectasis TEAE: number of subjects,[8],11
same,Hepatobiliary disorders (SOC) TEAE: number of subjects,[8],6
same,Rhinitis TEAE: number of subjects,[8],16
same,Influenza like illness TEAE: number of subjects,"ITT, AMR101 N = 4089, placebo 27 of 4090",23
same,Tooth infection TEAE: number of subjects,"ITT, AMR101 N = 4089, placebo 29 of 4090",20
same,Thrombocytopenia TEAE: number of subjects,"ITT, AMR101 N = 4089, placebo 31 of 4090",23
same,Wheezing TEAE: number of subjects,"ITT, AMR101 N = 4089, placebo 36 of 4090",23
same,General disorders and administration site conditions (SOC) TEAE: number of subjects,"ITT, AMR101 N = 4089, placebo 40 of 4090",28
same,Sepsis TEAE: number of subjects,"ITT, AMR101 N = 4089, placebo 42 of 4090",33
same,Blood and lymphatic system disorders (SOC) TEAE: number of subjects,"ITT, AMR101 N = 4089, placebo 48 of 4090",28
same,Subjects with at least one Infectious Disease Events of Interest (TEAE terms and labs): % of subjects,"ITT, AMR101 N = 4089, placebo 86.8, Fisher's Exact p <.0001",(83.0) %
same,Cough TEAE: number of subjects,"ITT, AMR101 N = 4089, placebo 241 of 4090",241
same,Influenza TEAE: number of subjects,"ITT, AMR101 N = 4089, placebo 271 of 4090",263
same,Pneumonia TEAE: number of subjects,"ITT, AMR101 N = 4089, placebo 277 of 4090",263
same,"Respiratory, thoracic and mediastinal disorders (SOC) TEAE: number of subjects","ITT, AMR101 N = 4089, placebo 318 of 4090",287
same,Infections and infestations (SOC) TEAE: number of subjects,"ITT, AMR101 N = 4089, placebo 599 of 4090",563
same,Subjects with at least one Infectious Disease TEAE of Interest: number of subjects,"ITT, AMR101 N = 4089, placebo 883 of 4090",812
same,Subjects with at least one Infectious Disease Events of Interest (TEAE terms and labs): number of subjects,"ITT, AMR101 N = 4089, placebo 3549 of 4090",3394
same,AR: ADHD (AE table),R-I,0.0%
same,AR: Allergic sinusitis (AE table),R-I,0.1%
same,AR: Alzheimer's Disease (AE table),R-I,0.1%
same,AR: Asthma (AE table),R-I,1.3%
same,AR: Atelectasis (AE table),R-I,0.4%

# From patent US20210308089A1, “METHODS OF TREATING AND/OR PREVENTING VIRAL INFECTIONS AND/OR DISEASES CAUSED BY VIRUSES IN A SUBJECT IN NEED THEREOF” (priority 2020, published 2021)
